Test results taken from patent US8030498B2, “Benzoylpyrazole compounds and herbicides containing them” (Ishihara Sangyo Kaisha, Ltd., priority 2005, dated 2011).

Experiments:
[1] = system: greenfoxtail; assay: Test Example 2: soil application on the day after sowing, growth inhibition rate, greenfoxtail; type: in vivo, Setaria viridis L.; conditions: 250 g/ha active ingredient, observed on 19th to 24th day; for inhibition at 250 g/ha: Setaria viridis
Text: (§1) Upland field soil was put into a 1/170,000 hectare pot, and seeds of various plants (barnyardgrass, crabgrass, greenfoxtail, redroot pigweed, prickly sida, velvetleaf, rice, wheat, corn and soybean) were sown. On the day after sowing, wettable powders or emulsifiable concentrates of the compounds of the present invention prepared in accordance with a conventional preparation method, were weighed so that the active ingredients became the prescribed amounts, and diluted with water in an amount corresponding to 500 liter per 1 hectare, followed by soil application with a small sprayer. On the 19th to 24th day after the application, the state of growth of the respective plants was visually observed, and the herbicidal effect was evaluated in accordance with a growth inhibition rate (%) of from 0 (equivalent to the non-treated area) to 100% (complete kill).

[2] = system: rice (Oryza sativa L.); assay: Test Example 1: foliar treatment, growth inhibition rate, rice; type: in vivo; conditions: 31 g/ha active ingredient, visually observed 17th to 23rd day after application; for pest or weed control at 31 g/ha: Oryza sativa
How it was run: (§2)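 Post-emergence foliar spray, pot test; WP/EC formulation in water at 500 L/ha, + 0.1 vol % spreader; leaf stage at treatment: corn 2.0–3.5, green foxtail 1.0–3.0, rice 1.0–2.5, wheat 1.7–3.4; visual % inhibition at 17–23 DAT (0 = untreated, 100 = dead).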

[3] = system: corn; assay: Test Example 2: soil application on the day after sowing, growth inhibition rate, corn; type: in vivo, Zea mays L.; conditions: 250 g/ha active ingredient, observed on 19th to 24th day; for inhibition at 250 g/ha: Zea mays
How it was run: (§3)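 Seeds were sown in upland field soil in pots, and on the following day compounds formulated as wettable powders or emulsifiable concentrates were diluted in water (500 liter per hectare) and sprayed onto the soil at prescribed active-ingredient doses. Growth was scored visually 19–24 days later, 0 = untreated to 100% = complete kill.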

[4] = system: corn (Zea mays L.); assay: Test Example 1: foliar treatment, growth inhibition rate, corn; type: in vivo; conditions: 31 g/ha active ingredient, visually observed 17th to 23rd day after application; for pest or weed control at 31 g/ha: Zea mays
How it was run: as §2

[5] = system: rice; assay: Test Example 2: soil application on the day after sowing, growth inhibition rate, rice; type: in vivo, Oryza sativa L.; conditions: 250 g/ha active ingredient, observed on 19th to 24th day; for inhibition at 250 g/ha: Oryza sativa
Text: as §1

[6] = system: velvetleaf; assay: Test Example 2: soil application on the day after sowing, growth inhibition rate, velvetleaf; type: in vivo, Abutilon theophrasti MEDIC.; conditions: 250 g/ha active ingredient, observed on 19th to 24th day; for inhibition at 250 g/ha: Abutilon theophrasti
How it was run: as §3

[7] = system: prickly sida; assay: Test Example 2: soil application on the day after sowing, growth inhibition rate, prickly sida; type: in vivo, Sida spinosa L.; conditions: 250 g/ha active ingredient, observed on 19th to 24th day; for inhibition at 250 g/ha: Sida spinosa
Text: as §1

[8] = system: greenfoxtail (Setaria viridis L.); assay: Test Example 1: foliar treatment, growth inhibition rate, greenfoxtail; type: in vivo; conditions: 31 g/ha active ingredient, visually observed 17th to 23rd day after application; for pest or weed control at 31 g/ha: Setaria viridis
How it was run: as §2

[9] = system: barnyardgrass; assay: Test Example 2: soil application on the day after sowing, growth inhibition rate, barnyardgrass; type: in vivo, Echinochloa crus-galli L.; conditions: 250 g/ha active ingredient, observed on 19th to 24th day; for inhibition at 250 g/ha: Echinochloa crus-galli
Text: as §1

[10] = system: redroot pigweed (Amaranthus retroflexus L.); assay: Test Example 1: foliar treatment, growth inhibition rate, redroot pigweed; type: in vivo; conditions: 31 g/ha active ingredient, visually observed 17th to 23rd day after application
How it was run: (§4)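 Visual scoring of growth inhibition, 0% (untreated) to 100% (complete kill), on days 17–23 following post-emergence spray of formulated compound in water (500 L/ha, 0.1 vol % spreader); plants treated at set leaf stages, e.g. corn 2.0–3.5, wheat 1.7–3.4.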

[11] = system: soybean (Glycine max Merr.); assay: Test Example 1: foliar treatment, growth inhibition rate, soybean; type: in vivo; conditions: 31 g/ha active ingredient, visually observed 17th to 23rd day after application
How it was run: as §4

[12] = system: prickly sida (Sida spinosa L.); assay: Test Example 1: foliar treatment, growth inhibition rate, prickly sida; type: in vivo; conditions: 31 g/ha active ingredient, visually observed 17th to 23rd day after application
How it was run: as §4

[13] = system: crabgrass; assay: Test Example 2: soil application on the day after sowing, growth inhibition rate, crabgrass; type: in vivo, Digitaria sanguinalis L.; conditions: 250 g/ha active ingredient, observed on 19th to 24th day; for inhibition at 250 g/ha: Digitaria sanguinalis
How it was run: as §3

[14] = system: velvetleaf (Abutilon theophrasti MEDIC.); assay: Test Example 1: foliar treatment, growth inhibition rate, velvetleaf; type: in vivo; conditions: 31 g/ha active ingredient, visually observed 17th to 23rd day after application; for pest or weed control at 31 g/ha: Abutilon theophrasti
How it was run: as §4

[15] = system: soybean; assay: Test Example 2: soil application on the day after sowing, growth inhibition rate, soybean; type: in vivo, Glycine max Merr.; conditions: 250 g/ha active ingredient, observed on 19th to 24th day; for inhibition at 250 g/ha: Glycine max
Text: as §1

[16] = system: wheat; assay: Test Example 2: soil application on the day after sowing, growth inhibition rate, wheat; type: in vivo, Triticum spp.; conditions: 250 g/ha active ingredient, observed on 19th to 24th day; for inhibition at 250 g/ha: Triticum aestivum
Text: as §1

[17] = system: wheat (Triticum spp.); assay: Test Example 1: foliar treatment, growth inhibition rate, wheat; type: in vivo; conditions: 31 g/ha active ingredient, visually observed 17th to 23rd day after application; for pest or weed control at 31 g/ha: Triticum
How it was run: as §2

[18] = system: barnyardgrass (Echinochloa crus-galli L.); assay: Test Example 1: foliar treatment, growth inhibition rate, barnyardgrass; type: in vivo; conditions: 31 g/ha active ingredient, visually observed 17th to 23rd day after application; for pest or weed control at 31 g/ha: Echinochloa crus-galli
How it was run: as §4

[19] = system: crabgrass (Digitaria sanguinalis L.); assay: Test Example 1: foliar treatment, growth inhibition rate, crabgrass; type: in vivo; conditions: 31 g/ha active ingredient, visually observed 17th to 23rd day after application; for pest or weed control at 31 g/ha: Digitaria sanguinalis
How it was run: as §4

[20] = system: redroot pigweed; assay: Test Example 2: soil application on the day after sowing, growth inhibition rate, redroot pigweed; type: in vivo, Amaranthus retroflexus L.; conditions: 250 g/ha active ingredient, observed on 19th to 24th day; for inhibition at 250 g/ha: Amaranthus retroflexus
How it was run: as §3

| SMILES | Growth inhibition rate (%) Greenfoxtail [1] [%] | Growth inhibition rate (%) Rice [2] [%] | Growth inhibition rate (%) Corn [3] [%] | Growth inhibition rate (%) Corn [4] [%] | Growth inhibition rate (%) Rice [5] [%] | Growth inhibition rate (%) Velvetleaf [6] [%] | Growth inhibition rate (%) Prickly sida [7] [%] | Growth inhibition rate (%) Greenfoxtail [8] [%] | Growth inhibition rate (%) Barnyardgrass [9] [%] | Growth inhibition rate (%) redroot pigweed [10] [%] | Growth inhibition rate (%) Soybean [11] [%] | Growth inhibition rate (%) Prickly sida [12] [%] | Growth inhibition rate (%) Crabgrass [13] [%] | Growth inhibition rate (%) Velvetleaf [14] [%] | Growth inhibition rate (%) Soybean [15] [%] | Growth inhibition rate (%) Wheat [16] [%] | Growth inhibition rate (%) Wheat [17] [%] | Growth inhibition rate (%) Barnyardgrass [18] [%] | Growth inhibition rate (%) Crabgrass [19] [%] | Growth inhibition rate (%) redroot pigweed [20] [%] | also measured |
| --- | --- | --- | --- | --- | --- | --- | --- | --- | --- | --- | --- | --- | --- | --- | --- | --- | --- | --- | --- | --- | --- |
| COC(=O)c1c(S(C)(=O)=O)ccc(C(=O)c2cnn(C)c2OC(=O)SC)c1Cl [compound 29] | 40 | 40 | 0 | 10 | 10 | 50 | 60 | 50 | 50 | 70 | 60 | 60 | 10 | 65 | 40 | 0 | 0 | 80 | 50 |  |  |
| CCn1ncc(C(=O)c2ccc(S(C)(=O)=O)c(C(=O)OC)c2C)c1OC(=O)SC [compound 4] | 70 | 100 | 0 | 5 | 70 | 60 | 70 | 100 | 80 |  | 95 | 80 | 100 | 95 | 50 | 0 | 50 | 95 | 95 | 100 |  |
| CCSC(=O)Oc1c(C(=O)c2ccc(S(C)(=O)=O)c(C3=NOCC3)c2C)cnn1C [Compound No. 39, 5-(ethylthio)carbonyloxy-1-methylpyrazol-4-yl 2-methyl-4-(methylsulfonyl)-3-(4,5-dihydroisoxazol-3-yl)phenyl ketone] |  |  |  |  |  |  |  |  |  | 80 | 95 |  |  |  |  |  |  |  |  |  | inhibition at 250 g/ha [1]: 80%; pest or weed control at 31 g/ha [2]: 95%; inhibition at 250 g/ha [3]: 10%; pest or weed control at 31 g/ha [4]: 0%; inhibition at 250 g/ha [5]: 80%; inhibition at 250 g/ha [6]: 60%; inhibition at 250 g/ha [7]: 70%; pest or weed control at 31 g/ha [8]: 95%; inhibition at 250 g/ha [20]: 100%; inhibition at 250 g/ha [9]: 70%; inhibition at 250 g/ha [13]: 100%; pest or weed control at 31 g/ha [14]: 90%; inhibition at 250 g/ha [15]: 0%; inhibition at 250 g/ha [16]: 0%; pest or weed control at 31 g/ha [17]: 40%; pest or weed control at 31 g/ha [18]: 95%; pest or weed control at 31 g/ha [19]: 90% |
| CCSC(=O)Oc1c(C(=O)c2ccc(S(C)(=O)=O)c(OCCOC)c2C)cnn1C [Compound No. 55, 5-(ethylthio)carbonyloxy-1-methylpyrazol-4-yl 3-(2-methoxyethoxy)-2-methyl-4-(methylsulfonyl)phenyl ketone] |  |  |  |  |  |  |  |  |  | 95 | 95 |  |  |  |  |  |  |  |  |  | inhibition at 250 g/ha [1]: 100%; pest or weed control at 31 g/ha [2]: 60%; inhibition at 250 g/ha [3]: 0%; pest or weed control at 31 g/ha [4]: 40%; inhibition at 250 g/ha [5]: 70%; inhibition at 250 g/ha [6]: 95%; inhibition at 250 g/ha [7]: 70%; pest or weed control at 31 g/ha [8]: 100%; inhibition at 250 g/ha [20]: 100%; inhibition at 250 g/ha [9]: 100%; inhibition at 250 g/ha [13]: 100%; pest or weed control at 31 g/ha [14]: 100%; inhibition at 250 g/ha [15]: 0%; inhibition at 250 g/ha [16]: 0%; pest or weed control at 31 g/ha [17]: 10%; pest or weed control at 31 g/ha [18]: 100%; pest or weed control at 31 g/ha [19]: 100% |
| CCSC(=O)Oc1c(C(=O)c2ccc(S(C)(=O)=O)c(OC(C)C)c2C)cnn1C [compound 37] | 60 | 70 | 0 | 0 | 10 | 30 | 10 | 100 | 60 | 100 | 70 |  | 80 | 95 | 0 | 0 | 0 | 95 | 80 | 50 |  |
| CCSC(=O)Oc1c(C(=O)c2ccc(S(C)(=O)=O)c(C(=O)SC)c2Cl)cnn1C [compound 31] | 70 | 60 | 0 | 60 | 60 | 60 | 70 | 80 | 60 | 70 | 50 | 70 | 65 | 60 |  | 0 | 0 | 100 | 30 | 60 |  |
| CCSC(=O)Oc1c(C(=O)c2ccc(S(C)(=O)=O)c(OCC(OC)OC)c2C)cnn1C [Compound No. 209, 5-(ethylthio)carbonyloxy-1-methylpyrazol-4-yl 3-(2,2-dimethoxyethoxy)-2-methyl-4-(methylsulfonyl)phenyl ketone] |  |  |  |  |  |  |  |  |  | 98 | 100 | 90 |  |  |  |  |  |  |  |  | inhibition at 250 g/ha [1]: 100%; pest or weed control at 31 g/ha [2]: 95%; inhibition at 250 g/ha [3]: 0%; pest or weed control at 31 g/ha [4]: 0%; inhibition at 250 g/ha [5]: 90%; inhibition at 250 g/ha [6]: 50%; inhibition at 250 g/ha [7]: 30%; pest or weed control at 31 g/ha [8]: 98%; inhibition at 250 g/ha [20]: 95%; inhibition at 250 g/ha [9]: 95%; inhibition at 250 g/ha [13]: 95%; pest or weed control at 31 g/ha [14]: 100%; inhibition at 250 g/ha [16]: 20%; pest or weed control at 31 g/ha [17]: 0%; pest or weed control at 31 g/ha [18]: 100%; pest or weed control at 31 g/ha [19]: 95% |
